Laboratory results as given in patent US20210284944A1, “HIGH-THROUGHPUT MULTI-ORGAN PERFUSION MODELS” (Novartis AG, priority 2018, published 2021).

Tests used:
[1] = tested on: primary human hepatocytes; assay: Hepatocyte-cancer cell crosstalk: viability of the hepatocytes after drug treatment; type: cell-based; conditions: Tegafur added to hepatocyte chamber; 72 hours
Description: (§1) 20,000 primary human hepatocytes (Lonza) (Hepatocyte plating medium for 4 hours, followed by hepatocyte maintenance medium with 0.3% (v/v) matrigel GFR for 20 hours) or HepG2 cells (to be transfected with CYP2A6 cDNA (as per vendor's recommendation)) were plated in one well of the two connected wells in their respective cell culture medium (catalog number 3386 for Transwell® plate). Prior to plating the primary human hepatocytes from Lonza, the Transwell® plate was coated with 0.1 mg/ml collagen (50 μls) (C3867 Sigma—collagen I rat tail solution) (solubilized in 0.1% acetic acid in 1×PBS (v/v)) for 1 hour at 37° C. (cell culture incubator) and washed with 1×PBS. The primary human hepatocytes were sandwiched in the human hepatocyte maintenance medium with 0.3% matrigel GFR (v/v) for the next 20 hours.
The high-throughput microfluidic device illustrated in FIG. 5B was cleaned, assembled and sterilized via autoclaving for 60 minutes. The wells of the autoclave-sterilized high-throughput microfluidic device (with two wells connected for each test unit) were filled with 300 μLs of media and centrifuged at 40 r.c.f for 4 minutes to fill all the flow channels. […] FIG. 12A depicts how the wells are filled, and FIG. 12B illustrates a test unit of the system. […]

[2] = tested on: HCT116 colorectal cancer cells; assay: Hepatocyte-cancer cell crosstalk: prodrug added to hepatocyte well, cell death in connected HCT116 well (live/dead staining); type: cell-based; conditions: increasing concentrations of Tegafur (0, 100, 200, 300 and 400 uM) added to hepatocyte chamber; fluidic flow 72 hours
Description: as §1, with “([…] Sigma-collagen” for “(C3867 Sigma—collagen”, “hours. In the other connected well of each test unit, 20,000 HCT116 cells were plated directly on the Transwell® membrane in McCoy's 5A media. For HepG2 cells, the cells were transfected with CYP2A6 cDNA for 48 hours prior to any drug addition. On the day of drug addition, the HCT116 colorectal cancer cells were moved into hepatocyte media in order to prevent mixing of different mediums. The high-throughput microfluidic device illustrated in FIG. 5B was cleaned, assembled and sterilized via autoclaving for 60 minutes. […]” for “hours.”

[3] = tested on: HCT116 colon cancer cells; assay: Staurosporine acute toxicity on HCT116 cells in connected wells of the microfluidic device (live/dead staining); type: cell-based; conditions: for cell death (live/dead staining): 24 hours
Description: 20,000 HCT116 cells were plated directly on the Transwell® membrane (catalog number 3386 for Transwell® plate) in McCoy's 5A media such that the connected wells preceding them were either filled with McCoy's 5A media (50 μls) alone or filled with 25 μls of 2.5 mg/ml collagen gel, with McCoy's 5A media (50 μls) above it. The arrangement is depicted in FIG. 11A, showing three pairs of connected wells (test units), where the lower well in each connected pair (test unit) has medium only, while the upper well in each test unit has HCT116 cells inside the well.
The high-throughput microfluidic device of FIG. 5B was cleaned, assembled and sterilized via autoclaving for 60 minutes. The wells of the autoclave sterilized high-throughput microfluidic device (two-well connects) were filled with 300 μLs of media and centrifuged at 40 r.c.f for 4 minutes to fill all the channels.
After 24 hours of culture, 50 μls of fresh media with different concentrations of staurosporine were added to different wells (see FIG. 11A). The device was placed on a compressed air system and the fluid was pumped via membrane flexion under a compressed air cycle of 1.5 psi (amplitude), sinusoidal wave pattern with a frequency of 0.2. The cells were imaged with live/dead staining after 24 hours to understand the diffusion characteristics of the drug and resulting cell death induced by staurosporine. […] Note that each image of the cells in a single well is divided into quadrants.

[4] = tested on: heart, liver and lung microfluidic modules; conditions: Skardal et al., Scientific Reports 7(1), 8837 (2017); cited from earlier work

Molecule: O=c1[nH]c(=O)n(C2CCCO2)cc1F (centres unmarked) [Tegafur]
- propidium iodide stain in the hepatocytes [1]: slight dose dependent increase
- viability of hepatocytes after drug treatment [1]: high viability
- toxicity to HCT116 eGFP cells in the connected wells [2]: significant dose dependent toxicity

Molecule: CN[C@@H]1C[C@H]2O[C@@](C)([C@@H]1OC)n1c3ccccc3c3c4c(c5c6ccccc6n2c5c31)C(=O)NC4 [staurosporine]
- cell death (live/dead staining) ([3]; test units with collagen gel plug as diffusion barrier, higher concentration of staurosporine): only a minor increase in cell death
- cell death in the HCT116 cells ([3]; test units without collagen gel, 0 μM, 25 μM and 50 μM staurosporine in connected well, 24 hours of operation): dose-dependent cell death
- cell death (live/dead staining) ([3]; without collagen gel, second image, 25 uM staurosporine): significant cell death
- cell death (live/dead staining) ([3]; without collagen gel, third image, 50 uM staurosporine): much more cell death

Molecule: bleomycin
- toxicity in multi-organ system [4]: induce lung inflammatory factor-driven cardiotoxicity
